Article PMC4684330, “Potentiation of Neuronal Nicotinic Receptors by 17β-Estradiol: Roles of the Carboxy-Terminal and the Amino-Terminal Extracellular Domains” (PLoS ONE, 2015)
Read-outs that look alike come from different tables or passages of the source.

How the values were obtained:
[1] = test system: T1, α(4.4.2.W)&β4; assay: two-electrode voltage clamp, agonist activation, Hill fit; type: cell-based, Homo sapiens; Mus musculus; details: no steroid, pH 7.3, Ba2+ saline, cRNA 20:1, read-out: ACh EC50
T1 construct: gene CHRNA4; one alpha polypeptide: alpha4 to D(571)RIFL, alpha2 TM4, tail WLAGMI (W as in alpha4); cRNA 20:1, oocytes, 3alpha:2beta
Excerpt: two-electrode voltage clamp, agonist activation, Hill fit on α(4.4.2.W)&β4

[2] = test system: T2, α4(α2DtoA)&β4; assay: as above; type: cell-based, Homo sapiens; Mus musculus; details: no steroid, pH 7.3, Ba2+ saline, cRNA 20:1, read-out: ACh EC50
T2 construct: gene CHRNA4; cRNA 20:1, oocytes, 3alpha:2beta

[3] = test system: T3, α(2.2.4.W)&β2; assay: as above; type: cell-based, Mus musculus; Homo sapiens; details: no steroid, pH 7.3, Ba2+ saline, cRNA 8:1, read-out: ACh EC50
T3 construct: gene Chrna2; one alpha polypeptide: alpha2 to start of TM4, alpha4 TM4, tail WLAGMI; with wild-type beta2, cRNA 8:1, oocytes, 3alpha:2beta
Excerpt: two-electrode voltage clamp, agonist activation, Hill fit on α(2.2.4.W)&β2

[4] = test system: T4, α(2.2.4.W)&β2(WLAGMI); assay: as above; type: cell-based, Mus musculus; Homo sapiens; details: no steroid, pH 7.3, Ba2+ saline, cRNA 8:1, read-out: ACh EC50
T4 construct: gene Chrna2
Excerpt: two-electrode voltage clamp, agonist activation, Hill fit on α(2.2.4.W)&β2(WLAGMI)

[5] = test system: T5, α2(W)(α4DtoA)&β4; assay: as above; type: cell-based, Mus musculus; Homo sapiens; details: no steroid, pH 7.3, Ba2+ saline, cRNA 20:1, read-out: ACh EC50
T5 construct: gene Chrna2; one alpha polypeptide: alpha2(W) carrying alpha4 MMT(57)-IVL(97); cRNA 20:1, oocytes, 3alpha:2beta
Excerpt: two-electrode voltage clamp, agonist activation, Hill fit on α2(W)(α4DtoA)&β4

[6] = test system: T6, α(4.4.2.F)&β2(WLAGMI); assay: as above; type: cell-based, Homo sapiens; Mus musculus; details: no steroid, pH 7.3, Ba2+ saline, cRNA 8:1, read-out: ACh EC50
T6 construct: gene CHRNA4
Excerpt: two-electrode voltage clamp, agonist activation, Hill fit on α(4.4.2.F)&β2(WLAGMI)

[7] = test system: T7, α(4.4.2.F)&β4; assay: as above; type: cell-based, Homo sapiens; Mus musculus; details: no steroid, pH 7.3, Ba2+ saline, cRNA 20:1, read-out: ACh EC50
T7 construct: gene CHRNA4; alpha4 and alpha2 parts are one polypeptide: alpha4 to D(571)RIFL, alpha2 TM4, tail FLAGMI; cRNA 20:1, oocytes, 3alpha:2beta
Excerpt: two-electrode voltage clamp, agonist activation, Hill fit on α(4.4.2.F)&β4

[8] = target: T8, α4&β4 20:1 (Homo sapiens, UniProt P43681+Q8R493, P43681:L623W/P43681:W622F); assay: cell-based
T8 construct: gene CHRNA4
Excerpt: (§1) two-electrode voltage clamp, agonist activation, Hill fit on α4&β4 20:1

[9] = target: T9, α4&β4 20:1 (Homo sapiens, UniProt P43681+Q8R493, P43681:W622K); assay: cell-based
T9 construct: gene CHRNA4
Excerpt: as §1

[10] = test system: T2, α4(α2DtoA)&β4; assay: two-electrode voltage clamp, agonist activation, Hill fit; type: cell-based, Homo sapiens; Mus musculus; details: no steroid, pH 7.3, Ba2+ saline, cRNA 20:1, read-out: ACh EC50; remark: listed apart in the source
[11] = test system: T10, α(2.2.4.W)&β4; assay: as above; type: cell-based, Mus musculus; Homo sapiens; details: no steroid, pH 7.3, Ba2+ saline, cRNA 20:1, read-out: ACh EC50
T10 construct: gene Chrna2; alpha2 to start of TM4 and alpha4 TM4 are one polypeptide, tail WLAGMI; cRNA 20:1, oocytes, 3alpha:2beta
Excerpt: two-electrode voltage clamp, agonist activation, Hill fit on α(2.2.4.W)&β4

[12] = test system: T11, α4(F)(α2DtoA+E)&β4; assay: as above; type: cell-based, Homo sapiens; Mus musculus; details: no steroid, pH 7.3, Ba2+ saline, cRNA 20:1, read-out: ACh EC50
T11 construct: gene CHRNA4; cRNA 20:1, oocytes, 3alpha:2beta

[13] = target: T12, α4&β4 1:10 (Homo sapiens, UniProt P43681+Q8R493); assay: as above; type: cell-based; details: read-out: ACh EC50
T12 construct: gene CHRNA4; full coding regions, cRNA 1:10 alpha:beta in Xenopus oocytes

[14] = test system: T13, α(4.4.2.F)&β2; assay: as above; type: cell-based, Homo sapiens; Mus musculus; details: no steroid, pH 7.3, Ba2+ saline, cRNA 8:1, read-out: ACh EC50
T13 construct: gene CHRNA4; one alpha polypeptide: alpha4 to D(571)RIFL, alpha2 TM4, tail FLAGMI; with wild-type beta2, cRNA 8:1, oocytes, 3alpha:2beta
Excerpt: two-electrode voltage clamp, agonist activation, Hill fit on α(4.4.2.F)&β2

[15] = test system: T14, α(4.2.2.F)&β4; assay: as above; type: cell-based, Homo sapiens; Mus musculus; details: no steroid, pH 7.3, Ba2+ saline, cRNA 20:1, read-out: ACh EC50
T14 construct: gene CHRNA4; alpha4 and alpha2 parts are one polypeptide: alpha4 N-terminus to V(210)IRRLP, rest alpha2 (TM1-TM3 identical), tail FLAGMI; cRNA 20:1, oocytes, 3alpha:2beta
Excerpt: two-electrode voltage clamp, agonist activation, Hill fit on α(4.2.2.F)&β4

[16] = test system: T15, α(2.4.4.W)&β4; assay: as above; type: cell-based, Mus musculus; Homo sapiens; details: no steroid, pH 7.3, Ba2+ saline, cRNA 20:1, read-out: ACh EC50
T15 construct: gene Chrna2; alpha2 N-terminal domain and alpha4 remainder are one polypeptide, tail WLAGMI; cRNA 20:1, oocytes, 3alpha:2beta
Excerpt: two-electrode voltage clamp, agonist activation, Hill fit on α(2.4.4.W)&β4

[17] = target: T16, α4&β4 20:1 (Homo sapiens, UniProt P43681+Q8R493); assay: two-electrode voltage clamp, potentiation of ACh current, Hill fit; type: cell-based; details: with ACh giving about 5-7% of maximal; pH 7.3, Ba2+ saline; allosteric potentiator; paper urges circumspection (solubility, block at high concentrations)
T16 construct: gene CHRNA4; full coding regions, cRNA 20:1 alpha:beta in Xenopus oocytes, pentamer 3alpha:2beta, mixed species

[18] = target: T17, α4&β4 20:1 (Homo sapiens, UniProt P43681+Q8R493, P43681:W622F); assay: as above; type: cell-based; details: with ACh giving about 5-7% of maximal; pH 7.3, Ba2+ saline; allosteric potentiator; paper urges circumspection (solubility, block at high concentrations)
T17 construct: gene CHRNA4; full coding regions, cRNA 20:1 alpha:beta in Xenopus oocytes, pentamer 3alpha:2beta, mixed species
T17 sequence (P43681 27-627 W622F): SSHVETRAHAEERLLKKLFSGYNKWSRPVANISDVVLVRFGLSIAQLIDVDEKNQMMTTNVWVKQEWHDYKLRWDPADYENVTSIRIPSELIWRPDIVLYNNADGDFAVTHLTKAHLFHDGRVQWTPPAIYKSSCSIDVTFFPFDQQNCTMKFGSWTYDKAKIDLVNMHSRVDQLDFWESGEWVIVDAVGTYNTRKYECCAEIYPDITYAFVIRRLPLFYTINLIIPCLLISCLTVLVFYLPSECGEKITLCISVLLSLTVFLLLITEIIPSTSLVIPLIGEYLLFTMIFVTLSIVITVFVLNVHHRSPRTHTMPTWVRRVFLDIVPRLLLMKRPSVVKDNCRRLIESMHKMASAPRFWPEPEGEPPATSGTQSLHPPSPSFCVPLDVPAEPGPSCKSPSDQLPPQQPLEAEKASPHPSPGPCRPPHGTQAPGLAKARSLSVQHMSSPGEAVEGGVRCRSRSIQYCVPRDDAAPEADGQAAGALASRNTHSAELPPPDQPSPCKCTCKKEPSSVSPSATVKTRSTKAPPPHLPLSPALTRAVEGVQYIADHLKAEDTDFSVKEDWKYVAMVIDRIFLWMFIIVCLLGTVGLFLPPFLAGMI
T17 sequence (Q8R493 21-495): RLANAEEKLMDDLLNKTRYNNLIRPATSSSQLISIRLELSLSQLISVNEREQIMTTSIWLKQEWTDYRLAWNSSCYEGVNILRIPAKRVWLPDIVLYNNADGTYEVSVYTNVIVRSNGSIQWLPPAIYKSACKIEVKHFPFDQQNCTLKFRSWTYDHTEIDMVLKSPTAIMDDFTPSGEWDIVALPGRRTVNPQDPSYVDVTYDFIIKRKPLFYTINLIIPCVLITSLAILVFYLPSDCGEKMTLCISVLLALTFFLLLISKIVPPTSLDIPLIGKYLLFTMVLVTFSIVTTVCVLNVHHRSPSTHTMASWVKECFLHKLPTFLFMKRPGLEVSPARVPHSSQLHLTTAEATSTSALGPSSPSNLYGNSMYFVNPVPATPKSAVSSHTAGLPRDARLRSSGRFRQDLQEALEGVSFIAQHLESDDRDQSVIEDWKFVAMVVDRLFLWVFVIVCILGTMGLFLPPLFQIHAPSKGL

T16 sequence (P43681 27-627): as the sequence (P43681 27-627 W622F) above, with F596W counted along it
T16 sequence (Q8R493 21-495): as the sequence (Q8R493 21-495) above
T12 sequence (P43681 27-627): as the sequence (P43681 27-627 W622F) above, with F596W counted along it
T12 sequence (Q8R493 21-495): as the sequence (Q8R493 21-495) above
T8 sequence (P43681 27-627 W622F/L623W): as the sequence (P43681 27-627 W622F) above, with L597W counted along it
T8 sequence (Q8R493 21-495): as the sequence (Q8R493 21-495) above
T9 sequence (P43681 27-627 W622K): as the sequence (P43681 27-627 W622F) above, with F596K counted along it
T9 sequence (Q8R493 21-495): as the sequence (Q8R493 21-495) above

| Compound | EC50 [1] [µM] | EC50 [2] [µM] | EC50 [3] [µM] | EC50 [4] [µM] | EC50 [5] [µM] | EC50 [6] [µM] | EC50 [7] [µM] | EC50 [8] [µM] | EC50 [9] [µM] | EC50 [10] [µM] | EC50 [11] [µM] | EC50 [12] [µM] | EC50 [13] [µM] | EC50 [14] [µM] | EC50 [15] [µM] | EC50 [16] [µM] | EC50 [17] [µM] | EC50 [18] [µM] |
| --- | --- | --- | --- | --- | --- | --- | --- | --- | --- | --- | --- | --- | --- | --- | --- | --- | --- | --- |
| CC(=O)OCC[N+](C)(C)C [acetylcholine chloride] | […] | […] | […] | […] | […] | […] | […] | 14 ± 1 | 14 ± 2 | […] | […] | 16 ± 2 | 14 ± 2.4 | […] | […] | […] |  |  |
| 19-norpregna-1,3,5(10)-trien-20-yne-3,17-diol, (17α)-(9CI) [17α-vinyl estradiol] |  |  |  |  |  |  |  |  |  |  |  |  |  |  |  |  | 3.84 ± 0.27 | 7.32 ± 0.68 |
